Assay results from the supplement of paper PMC10307832.

The cell lines below were run with COc1cc(-c2nn([C@H]3CC[C@H](N4CCN(C(C)=O)CC4)CC3)c3ncnc(N)c23)ccc1NC(=O)c1cc2ccccc2n1C + COc1cccc2cc(-c3nc([C@H]4CC[C@H](C(=O)O)CC4)n4ncnc(N)c34)[nH]c12 [OSI-027] (partner 0.5 µM) (assay: relative viability (nuclei count vs DMSO), 5 days (fraction); higher = more cells survive). Settings: first compound 0.04048 µM.
How it was run: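 Nuclei were stained with Hoechst during a one-step fixation (final 0.05% Triton X-100, 1% formaldehyde, 1 ug/ml Hoechst) carried out 5 days after dosing, then counted on 4× images. The cells, lung cancer lines in 1536-well plates, had been dosed by pin tool the day after seeding with one drug alone or a fixed anchor-drug dose plus five library-drug doses (not always all listed) in √10 steps. Relative viability is the nuclei count in treated wells divided by that in vehicle wells, and each value is the median of duplicate plates.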
HCC-44 was tested, and the relative viability was 0.528. LU99A gave a relative viability of 0.323. For BEN, the relative viability was 0.296. Work on HARA yielded a relative viability of 0.312. With NCI-H322M the relative viability was 0.509. Work on LCLC-97TM1 yielded a relative viability of 0.243. Cell Line NCI-H2009 has a relative viability of 0.463. For NCI-H441, the relative viability was 0.531. NCI-H661 gave a relative viability of 0.722. Work on NCI-H1734 yielded a relative viability of 0.551. NCI-H460 was tested, and the relative viability was 0.584. For SK-LU-1, the relative viability was 0.291. NCI-H1395 was tested, and the relative viability was 0.674. 201T showed a relative viability of 0.765. With NCI-H1915 the relative viability was 0.404.

Same assay, conditions: first compound 0.128 µM
Cell Line NCI-H2126 has a relative viability of 0.646. Cell Line EMC-BAC-2 has a relative viability of 0.385. In the case of NCI-H2085, the relative viability is reported as 0.774. With NCI-H1666 the relative viability was 0.764. Cell Line NCI-H596 has a relative viability of 0.641. Work on LK-2 yielded a relative viability of 0.198. In the case of NCI-H2087, the relative viability is reported as 0.611. SK-MES-1 gave a relative viability of 0.583. H3255 showed a relative viability of 0.573. For COR-L23, the relative viability was 0.71. Cell Line COR-L 105 has a relative viability of 0.636. LOU-NH91 was tested, and the relative viability was 0.731. NCI-H2405 gave a relative viability of 0.633. HOP-62 showed a relative viability of 0.817. HCC-44 was tested, and the relative viability was 0.549. LU99A showed a relative viability of 0.329. With BEN the relative viability was 0.311. With HARA the relative viability was 0.482. NCI-H322M showed a relative viability of 0.5. LCLC-97TM1 was tested, and the relative viability was 0.489. NCI-H2009 showed a relative viability of 0.635. A-427 was tested, and the relative viability was 0.456. NCI-H441 gave a relative viability of 0.763. NCI-H661 was tested, and the relative viability was 0.691. With NCI-H1734 the relative viability was 0.613. Cell Line NCI-H460 has a relative viability of 0.623. NCI-H2347 gave a relative viability of 0.434. With SK-LU-1 the relative viability was 0.284. NCI-H1395 showed a relative viability of 0.723. For 201T, the relative viability was 0.746. NCI-H1915 was tested, and the relative viability was 0.585.

Same assay, conditions: first compound 1.28 µM
Work on NCI-H2126 yielded a relative viability of 0.547. EMC-BAC-2 gave a relative viability of 0.352. With NCI-H2085 the relative viability was 0.519. With NCI-H1666 the relative viability was 0.784. Cell Line NCI-H596 has a relative viability of 0.441. LK-2 gave a relative viability of 0.184. NCI-H2087 gave a relative viability of 0.648. Cell Line SK-MES-1 has a relative viability of 0.562. Work on H3255 yielded a relative viability of 0.552. COR-L23 was tested, and the relative viability was 0.672. COR-L 105 showed a relative viability of 0.343. LOU-NH91 showed a relative viability of 0.745. NCI-H2405 showed a relative viability of 0.324. HOP-62 was tested, and the relative viability was 0.707. In the case of HCC-44, the relative viability is reported as 0.484. Work on LU99A yielded a relative viability of 0.312. With BEN the relative viability was 0.291. HARA showed a relative viability of 0.248. NCI-H322M showed a relative viability of 0.526. LCLC-97TM1 showed a relative viability of 0.586. NCI-H2009 was tested, and the relative viability was 0.54. A-427 gave a relative viability of 0.45. With NCI-H441 the relative viability was 0.702. With NCI-H661 the relative viability was 0.575. NCI-H1734 showed a relative viability of 0.485. With NCI-H460 the relative viability was 0.395. Cell Line NCI-H2347 has a relative viability of 0.418. Cell Line SK-LU-1 has a relative viability of 0.206. Cell Line NCI-H1395 has a relative viability of 0.556. 201T gave a relative viability of 0.339. For NCI-H1915, the relative viability was 0.481.
